In patent US20170202932A1, “METHODS FOR INHIBITING NEURON APOPTOSIS AND NECROSIS” (NEWSOUTH INNOVATIONS PTY LIMITED, priority 2012, published 2017):

Assays:
[1] = biological target: T1, recombinant mouse TRPC3c channels (Mus musculus, UniProt Q9QZC1, DEL811-838); assay: Fluo-4 Ca2+ imaging of DHPG-activated Ca2+ entry, HEK293 cells co-expressing TRPC3c and mGluR1; format: cell-based; conditions: genistein 200 μM pre-application, n=6, without genistein 2.71±0.217
T1 construct: expressed in transfected cells; host or cells: HEK293 cells, stably transfected (pIRES-DsRed2 vector)
T1 sequence (Q9QZC1 with tags, fused parts or gaps DEL811-838): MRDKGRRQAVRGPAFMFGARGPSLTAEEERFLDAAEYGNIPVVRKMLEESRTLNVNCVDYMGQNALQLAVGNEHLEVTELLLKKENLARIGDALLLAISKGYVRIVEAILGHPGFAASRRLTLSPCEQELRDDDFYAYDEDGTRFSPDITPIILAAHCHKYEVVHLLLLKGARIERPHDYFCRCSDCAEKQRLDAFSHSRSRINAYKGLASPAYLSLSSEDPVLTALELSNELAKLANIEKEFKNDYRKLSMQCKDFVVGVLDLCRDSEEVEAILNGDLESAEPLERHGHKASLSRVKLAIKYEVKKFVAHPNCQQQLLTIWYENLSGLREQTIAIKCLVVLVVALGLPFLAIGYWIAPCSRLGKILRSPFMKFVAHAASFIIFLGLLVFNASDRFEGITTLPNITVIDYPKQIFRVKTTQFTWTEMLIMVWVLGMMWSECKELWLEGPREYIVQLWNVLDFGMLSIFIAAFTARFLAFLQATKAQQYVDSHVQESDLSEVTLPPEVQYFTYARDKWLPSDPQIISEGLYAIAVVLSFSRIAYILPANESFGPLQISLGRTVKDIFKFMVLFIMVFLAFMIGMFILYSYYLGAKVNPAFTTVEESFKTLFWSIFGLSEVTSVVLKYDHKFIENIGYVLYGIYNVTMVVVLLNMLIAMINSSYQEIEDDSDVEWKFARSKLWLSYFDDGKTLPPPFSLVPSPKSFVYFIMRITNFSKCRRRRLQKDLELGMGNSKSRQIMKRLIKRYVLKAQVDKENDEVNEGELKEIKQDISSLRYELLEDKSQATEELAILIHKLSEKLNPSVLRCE
Experimental: The TRPC3-mediated Ca^2+ entry through two distinct activation pathways was assessed by microfluorometric Ca^2+ imaging: i) Ca^2+ entry via the M3 receptor-PLCB-DAG pathway endogenous to HEK293 cells, using Indo-1 as a Ca^2+ indicator; and ii) Ca^2+ entry via mGluR1-PLCB-DAG through co-expression of the mGluR1, using Fluo-4 as a Ca^2+ indicator.
Cells were grown in DMEM media on 18 mm circular coverslips coated with poly-D-lysine (25 μg/ml) and collagen (25 μg/ml) at 1:1 ratio. The cells were washed with HPSS. The coverslips were then incubated with HPSS and 0.1% pluronic acid, along with either 1 μM Indo-1AM or Fluo-4AM Ca^2+ indicator (Invitrogen, U.S.A.) for an hour prior to the experiment. […]
For Fluo-4 experiments, the cells were mounted on an inverted microscope (DMIL, Leica) with a 20× 0.4NA objective (Leica HCX PL Fluotar), and illuminated with a mercury lamp using a GFP filter (part no. 11504164; excitation 470/40 nm, dichroic 500 nm, emission 525/50 nm) every 5 seconds (Andor iXon+ 885 EMCCD Camera, Ireland) with a gated shutter (Ludl Electronic Products, U.S.A.), controlled via Andor IQ (v1.8.1) software. The images were then analysed using Image J software (NIH, U.S.A.) with individual regions of interest (ROIs) identified for HEK293 cells responding to M3 or mGluR1 agonists with increased Ca^2+ signal. […]

[2] = biological target: T2, Purkinje cell TRPC3 channels (Mus musculus, UniProt Q9QZC1, DEL811-838); assay: Whole-cell voltage clamp of DHPG-evoked inward current in Purkinje cells of cerebellar brain slices; format: cell-based
T2 construct: from tissue; host or cells: parasagittal cerebellar brain slices, C129-SvEv mice, Purkinje neurons
T2 sequence (Q9QZC1 with tags, fused parts or gaps DEL811-838): T1 sequence (Q9QZC1 with tags, fused parts or gaps DEL811-838)
Experimental: TRPC3c-mediated current in cerebellar Purkinje cells was then assessed. Parasagittal cerebellar brain slices (400 μm) were prepared using standard techniques (Power and Sah, (2007) J. Physiol. 580:835-57). Mice (C129-SvEv strain, 4-8 weeks old) were anaesthetized with pentobarbital and decapitated. The brain was removed and submerged in an ice cold modified artificial cerebral spinal fluid (ACSF) solution containing 119 mM NaCl, 2.5 mM KCl, 3.3 mM MgCl2, 0.5 mM CaCl2, 1.0 mM Na2PO4, 26.2 mM NaHCO3, 11 mM glucose, equilibrated with 95% CO2, 5% 02. Slices were cut with a VT1200 vibratome (Leica, Germany) and were allowed to recover for at least 1 h at room temperature in a standard ACSF solution containing 119 mM NaCl, 2.5 mM KCl, 1.3 mM MgCl2, 2.5 mM CaCl2, 1.0 mM Na2PO4, 26.2 mM NaHCO3, 11 mM glucose, equilibrated with 95% CO2, 5% O2.
For recording, slices were transferred to the stage of a Zeiss Examiner D1 microscope and continuously perfused with ACSF heated to 30° C. Whole-cell patch-clamp recordings were made from the soma of Purkinje neurons identified using infrared differential interference contrast videomicroscopy. Patch pipettes (3-5 MΩ) were filled with an internal solution containing 135 mM Cesium methanesulfonate, 8 mM NaCl, 10 mM HEPES, 2 mM Mg2ATP, 0.3 mM Na3GTP, 0.1 spermine (pH 7.3 with KOH, osmolarity 290-300 mosmol l^−1). Alexa 594 (30 μM; Invitrogen, U.S.A.) was added to the internal solution to visualise the dendritic tree. Whole-cell currents at a holding potential of −70 mV were amplified with an Axopatch 2B amplifier (Molecular Devices, U.S.A.), filtered at 5 kHz and digitized at 20 kHz with a Digidata1440 (Molecular Devices), and controlled using pClamp 10.2 Software (Molecular Devices). Whole-field fluorescence measurements were made with a 40× water immersion objective (NA 1.0; Zeiss, Germany) using a F43 filter block; excitation 545/25 nm; dichroic 570 nm, emission 605/70 nm. Images were acquired with a cooled CCD camera (ProgRes MF-Cool, Jenoptik, Germany) DHPG (50 μM) was applied onto the dendritic field by focal pressure application (in ACSF) through a patch pipette.

Q: Which “Fluo-4 fluorescence F/F0 (TRPC3-mediated Ca2+ entry after DHPG)” value [1] does the source give for `O=c1c(-c2ccc(O)cc2)coc2cc(O)cc(O)c12` [genistein, 4′, 5,7-trihydroxyisoflavone] here?
A: 0.876±0.0621

Q: What about the “peak of the DHPG-evoked current” value ([2]; 15 min after genistein 100 μM, before genistein −400±55 pA) of the same compound?
A: −77±50 pA

Q: What about the “integrated area of the DHPG-evoked current (net charge)” value ([2]; after genistein 100 μM, before genistein −878±11 pC) of the same compound?
A: −74±105 pC

Q: What about the “time over which block of the current was produced” value ([2]; genistein 100 μM bath application) of the same compound?
A: 10 to 15 min

Q: And the “reduction of DHPG-evoked Purkinje cell inward current” value ([2]; genistein 100 μM, DHPG 50 μM, holding −70 mV, n=3)?
A: 90±12%
